Like-named read-outs stand apart in the source and are kept apart here.
Target: T1, LG586 enzyme (Homo sapiens, UniProt Q9Y4D2)
T1 sequence (Q9Y4D2 1-1042): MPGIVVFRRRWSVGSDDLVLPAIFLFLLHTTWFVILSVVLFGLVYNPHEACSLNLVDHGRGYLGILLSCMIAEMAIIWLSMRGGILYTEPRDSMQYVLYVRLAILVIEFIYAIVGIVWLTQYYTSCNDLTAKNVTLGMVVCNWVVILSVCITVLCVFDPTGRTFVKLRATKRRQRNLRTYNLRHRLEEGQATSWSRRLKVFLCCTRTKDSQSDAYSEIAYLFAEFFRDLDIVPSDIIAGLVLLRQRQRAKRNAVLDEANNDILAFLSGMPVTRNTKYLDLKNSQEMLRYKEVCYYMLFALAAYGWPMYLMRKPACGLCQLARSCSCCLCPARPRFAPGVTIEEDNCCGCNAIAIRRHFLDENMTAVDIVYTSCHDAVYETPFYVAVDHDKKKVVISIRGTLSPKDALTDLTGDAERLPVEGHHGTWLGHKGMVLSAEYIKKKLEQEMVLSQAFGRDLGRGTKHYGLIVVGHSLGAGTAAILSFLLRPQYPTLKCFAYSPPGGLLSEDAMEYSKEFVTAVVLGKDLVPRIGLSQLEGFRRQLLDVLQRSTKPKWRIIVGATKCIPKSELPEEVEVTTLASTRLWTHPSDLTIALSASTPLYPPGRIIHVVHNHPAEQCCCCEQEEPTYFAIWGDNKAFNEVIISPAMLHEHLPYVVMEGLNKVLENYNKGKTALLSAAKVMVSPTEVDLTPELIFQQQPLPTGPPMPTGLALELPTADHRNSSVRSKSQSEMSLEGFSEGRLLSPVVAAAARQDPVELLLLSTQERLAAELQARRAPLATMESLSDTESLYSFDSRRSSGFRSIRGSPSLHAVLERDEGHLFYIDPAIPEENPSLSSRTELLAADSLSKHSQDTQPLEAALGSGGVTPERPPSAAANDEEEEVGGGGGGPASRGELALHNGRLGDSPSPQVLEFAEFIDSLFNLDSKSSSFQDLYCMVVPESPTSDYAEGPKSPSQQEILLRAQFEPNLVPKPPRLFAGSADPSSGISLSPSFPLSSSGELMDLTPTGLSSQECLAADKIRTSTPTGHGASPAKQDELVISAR
Type: biochemical
Details: LG586 membrane prep, 250 μM PNP substrate, 10 min preincubation
Procedure: Black non-binding surface Corning plates (3655) were spotted with 0.9 μL of compound in twenty point 1:3 dilutions. The same volume of dimethyl sulfoxide (DMSO) was added to column 23 of the plate.
A membrane prep from a stable HEK cell line expressing LG586 was prepared by the Cell Resource Group at BMS in Hopewell, N.J. The protein concentration of the membrane prep was 1.28 μg/μL. […] For the assay, membrane was thawed to room temperature and then added to the assay buffer, 100 mM HEPES in MQ water at pH 7.5. The concentration of the LG586 enzyme in the assay is 0.005 μg/mL.
The substrate used in this assay was purchased from Sigma (N9876) p-nitrophenyl butyrate (PNP). The substrate is received in the liquid form and must be diluted with DMSO. […] The final concentration of the substrate is 250 μM.
Enzyme was added to the plates 80 μL/well using a Multi-drop Combi (Thermo). The plates were incubated with the compound for 10 minutes at room temperature. Then 9 μL of substrate was added to each well and the plates were immediately read on the Viewlux Imager (Perkin Elmer) in absorbance mode with the excitation filter of 405 nm and emission filter of 564/250 nm. The read was kinetic, plates were read once every 30 seconds for 5 minutes and then slopes were calculated for each well and the data was reduced with in-house software.

Substance: 2-(2,2-dimethyl-N-(4-(naphthalen-1-yl)benzyl)chroman-6-sulfonamido)acetic acid [Example 23]
- IC50 (read-out: Data Range*): 2 to 100 nM
- IC50 (read-out: LE_LG586PNP_DR (IC50)): 3 nM
